The record followed here is patent US8709764B2, “Enzymatic demethylation of flavonoids” (Universiteit Gent, priority 2005, dated 2014).

“And” between values parts separate entries of the source, which are not always exact repeats. Equal values may be shown once.

For the series, the system named is E. limosum. As to the kind of experiment: Selection of 8-PN producing E. limosum by repeated incubations with IX. The series is classed as in vitro ADME, Eubacterium limosum. The note with it: 6 parallel incubations, 25 mg/l IX, 8 days. On the procedure:
Because of the capacity of E. limosum to transform IX into 8-PN, a selection procedure was performed to obtain a strain, capable to quantitatively produce 8-PN. The selection procedure consisted of 6 parallel incubations of E. limosum [cultures from single colonies] with 25 mg/l IX and incubation for 8 days. Next, the culture which produced the highest amount of 8-PN was selected and used as inoculum for the next round of 6 parallel incubations (Table 3). […] This means that, after only three rounds, a strain was selected which converted almost all IX (high mean) and was also stable (low standard deviation).

Take `COc1cc(O)c(CC=C(C)C)c2c1C(=O)C[C@@H](c1ccc(O)cc1)O2` [IX, 5-O-methyl-8-prenylnaringenin]: the “Molar % IX to 8-PN conversion, Highest” value was 46.5% (selection round I) and 79.4% (selection round II). Also, the “Molar % IX to 8-PN conversion, Lowest” value was 2% and 2.1% (selection round I); 24.3% (selection round II); 82% and 82.1% (selection round III). The “Molar % IX to 8-PN conversion, Mean (stdev)” value (“Molar % IX … (stdev)” for short) (selection round I) is 22.5% and 22.5 (19.3) %; the “Molar % IX … (stdev)” value (selection round II) is 57.9 (19.6) %; the “Molar % IX … (stdev)” value (selection round III) was 90.5% and 90.5 (6.9) %.
